This note sets out measurements from paper PMC12122562, “Phase 1 studies of the indenoisoquinolines LMP776 and LMP744 in patients with solid tumors and lymphomas” (Cancer Chemotherapy and Pharmacology, 2025).

One test deals with cCasp3. Put plainly: IFA of paired tumor biopsies: cCasp3 co-localized with γH2AX (apoptosis). In kind it is in vivo, human. The settings on record: patient 29, MTD, C1D2. The text has this:
The LMP744 protocol collected pre-treatment (baseline) and on-treatment paired biopsies from patients in the expansion cohort. Core needle tumor biopsies (18-gauge) were collected and flash-frozen at point of collection per NCI SOPs (https://dctd.cancer.gov/ResearchResources/biomarkers/docs/par/SOP340507_Biopsy_Frozen.pdf) as described to preserve labile post-translational modifications such as phosphorylation. Biopsy pairs were thawed in formalin, fixed in paraffin embedded together with control tissues following NCI SOP340550 (https://dctd.cancer.gov/ResearchResources/biomarkers/DDR3/SOP340550_Biopsy_Section_Testis_Jejunum_Controls.pdf). TOP1 and TOP1cc were measured with a cocktail containing custom-conjugated rabbit monoclonal antibody anti-TOP1-DIG (Abcam, EPR5376 (2)) and mouse monoclonal antibody anti-TOP1cc (clone 1.1A [34, 35], EMD Millipore) that were detected with reporter secondary antibodies AlexaFluor-647 IgG fraction monoclonal mouse anti-digoxin (Jackson ImmunoResearch) and goat/anti-mouse AlexaFluor-488, respectively. Phosphorylated KAP1 (pKAP1, phosphorylated at S824) was measured using custom-conjugated pKAP1-pS824-DNP (Abcam, EPR5248) and detected with AlexaFluor-488 conjugated with anti-dinitrophenyl-KLH rabbit IgG Antibody Fraction (DNP-488, ThermoFisher). […]

In the next test the target is T1, TOP1 (Homo sapiens, UniProt P11387).
T1 construct: paired pre-treatment and on-treatment tumor biopsies (C1D2, 2–4 h after dosing) from 6 patients receiving LMP744 at the MTD; from tissue; host or cells: core needle tumor biopsies from patients (LMP744 expansion cohort)
T1 sequence (P11387 1-765): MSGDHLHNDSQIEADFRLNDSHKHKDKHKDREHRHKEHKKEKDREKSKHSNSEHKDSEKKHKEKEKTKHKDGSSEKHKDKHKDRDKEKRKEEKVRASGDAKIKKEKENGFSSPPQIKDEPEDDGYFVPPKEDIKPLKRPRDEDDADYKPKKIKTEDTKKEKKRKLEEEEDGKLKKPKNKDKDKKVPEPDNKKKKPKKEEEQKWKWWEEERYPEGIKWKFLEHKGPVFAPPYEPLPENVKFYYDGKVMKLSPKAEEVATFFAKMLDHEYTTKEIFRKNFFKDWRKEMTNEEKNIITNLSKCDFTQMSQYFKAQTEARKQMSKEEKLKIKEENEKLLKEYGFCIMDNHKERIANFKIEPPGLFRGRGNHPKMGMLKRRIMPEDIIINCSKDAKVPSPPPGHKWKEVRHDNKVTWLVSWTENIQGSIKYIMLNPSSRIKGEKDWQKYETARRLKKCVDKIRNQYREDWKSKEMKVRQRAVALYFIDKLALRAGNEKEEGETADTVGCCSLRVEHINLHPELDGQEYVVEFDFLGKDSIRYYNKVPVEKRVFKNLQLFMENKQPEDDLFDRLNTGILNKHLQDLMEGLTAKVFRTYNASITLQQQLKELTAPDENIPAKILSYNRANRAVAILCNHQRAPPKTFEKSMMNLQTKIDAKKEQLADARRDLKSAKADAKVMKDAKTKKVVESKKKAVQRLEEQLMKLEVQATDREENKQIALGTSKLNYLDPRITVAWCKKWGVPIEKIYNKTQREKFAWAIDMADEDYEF
Put plainly: qIF of paired tumor biopsies: nuclear TOP1. Type of test: in vivo. An excerpt: The LMP744 protocol collected pre-treatment (baseline) and on-treatment paired biopsies from patients in the expansion cohort. Core needle tumor biopsies (18-gauge) were collected and flash-frozen at point of collection per NCI SOPs (https://dctd.cancer.gov/ResearchResources/biomarkers/docs/par/SOP340507_Biopsy_Frozen.pdf) as described to preserve labile post-translational modifications such as phosphorylation. Biopsy pairs were thawed in formalin, fixed in paraffin embedded together with control tissues following NCI SOP340550 (https://dctd.cancer.gov/ResearchResources/biomarkers/DDR3/SOP340550_Biopsy_Section_Testis_Jejunum_Controls.pdf). TOP1 and TOP1cc were measured with a cocktail containing custom-conjugated rabbit monoclonal antibody anti-TOP1-DIG (Abcam, EPR5376 (2)) and mouse monoclonal antibody anti-TOP1cc (clone 1.1A [34, 35], EMD Millipore) that were detected with reporter secondary antibodies AlexaFluor-647 IgG fraction monoclonal mouse anti-digoxin (Jackson ImmunoResearch) and goat/anti-mouse AlexaFluor-488, respectively. Phosphorylated KAP1 (pKAP1, phosphorylated at S824) was measured using custom-conjugated pKAP1-pS824-DNP (Abcam, EPR5248) and detected with AlexaFluor-488 conjugated with anti-dinitrophenyl-KLH rabbit IgG Antibody Fraction (DNP-488, ThermoFisher). Validated immunofluorescence assays (IFAs) were used to measure levels of γH2AX, phosphorylated NBS1 (pNBS1, phosphorylated at Ser343), and RAD51 [15, 17, 19, 29]. Antibodies in all clinical immunofluorescence staining protocols were used as a cocktail with β-catenin as a tumor marker as previously described. After staining with primary antibodies, washing, and staining with secondary antibodies, slides were rinsed in 1X PBS and blotted to remove excess liquid. Slides were cured overnight with Prolong Gold Antifade Reagent (Invitrogen) in the dark and imaged the following day. Confocal images (12-bit) were acquired at 20X using a Nikon A1 scan head on a Nikon 90i microscope at 0.24 µm/pixel to measure nuclear TOP1 and nuclear foci of TOP1cc and RAD51. […] TOP1, γH2AX, pNBS1, and pKAP1 were measured as the percentage of DAPI-stained tumor cell nuclear area that was positive for the biomarker (% NAP); RAD51 [19] and TOP1cc was measured as a function of the percentage of nuclei with ≥ 5 foci (RAD51) or ≥ 19 foci (TOP1cc). Apoptosis was measured using a validated IFA of tumor cells positive for both cCasp3 blebbing in the cytoplasm and γH2AX in the nucleus. Anti-SLFN11 rabbit monoclonal antibody (Cell Signaling Technology, clone D8W1B) was detected by immunohistochemistry (IHC) using Bond Polymer Detection kit (Leica) and scanned in 20X widefield Aperio (Leica), and the distribution of staining intensity of tumor cell nuclei graded as 0, 1 + , 2 + or 3 + was converted into an H-score. […]

For `COc1cc2c3c(n(CCCNCCO)c(=O)c2cc1OC)-c1cc2c(cc1C3=O)OCO2` [LMP744], the “Co-localized cytoplasmic cCASP3” value in the test with cCasp3 is “increase in co-localized cytoplasmic cCASP3”. On TOP1 (6 patients at MTD, P = 0.1448), the “Nuclear TOP1, change in the biopsy cohort” value was “no significant changes”. Further, the “Nuclear TOP1” value on TOP1 (patient 29, MTD, C1D2) is “neither biomarker changed with treatment”; on TOP1 (patient 31, MTD, C1D2), “decreased nearly to background levels”. For the same compound, the “Decrease of nuclear TOP1” value at TOP1 (patient 33, MTD, C1D2) worked out at 57%.
